Measured values from patent publication US20060062850A1, “Controlled release antimicrobial polymer compositions” (priority 2004, published 2006).

How the values were obtained:
L. monocytogenes 15313 [1] = assay: film on lawn assay; assay type: cell-based; settings: incubation at 37 C.
Protocol: In a film on lawn assay, films of Example 1 and Example 2 were cut into 15 mm by 15 mm samples, placed onto aluminum foil, and exposed to UV light in a laminar flow hood for 4 to 7 minutes. The samples were then transferred from the foil to one of six freshly made up antimicrobial solutions to imbibe for 12 to 24 hours at a specified temperature (4° C. or 37° C.). The films are expected to substantially reach equilibration in less than 12 hours. The films were removed with a pair of flame-sterilized ocular forceps, allowed to drip dry, and held for 60 seconds on a sterile Petri dish before positioning on TSA and MOX agar plates. The agar plates had been prepared as described above with respect to the spot on lawn assay. Two films were placed on each of the prepared agar plates, in well-separated regions. A third 15 mm×15 mm film was imbibed under the same conditions in a negative control solution and placed in another region of the plate. Three plates were prepared in this manner for each concentration of each antimicrobial agent. In the case of the MOX agar plates, a fourth plate was prepared with the same level of innoculum, with no films in it, to serve as a growth indicator plate for color change. After film placement, the plates were allowed to stand undisturbed for 10 to 30 minutes in a laminar flow hood before incubation for at least 24 hours.
Incubation took place at either 4° C. for 14 to 28 days or 37° C. for two to five days. The incubation conditions are noted in the Tables.
The zone of inhibition resulting from each spot of antimicrobial solution was measured as described above, with respect to the spot on lawn assay. The values reported in Tables 5 and 6 are the average of 12 measurements. Occasionally inhibition could be observed on the MOX agar plates, but not easily measured, owing to the relatively diffuse boundaries between areas of inhibition and non-inhibition. In such cases, a qualitative description of the results is provided.

L. monocytogenes 15313 [2] = assay: spot on lawn assay; assay type: cell-based
Protocol: For each concentration of each antimicrobial agent, a spot on lawn assay was conducted as a positive control experiment to assess the efficacy of the antimicrobial solutions. In this assay, Trypticase Soy Agar (TSA) and Modified Oxford Agar (MOX) agar plates were inoculated with L. monocytogenes 15313 at a level of 10E+08 cfu/ml through an Autoplate 4000 model from Spiral Biotech, Inc., of Norwood, Mass. A volumetric pipette pump was then used to place three 10 μl spots of antimicrobial solution onto three well-separated regions of the test plate. Another volumetric pipette pump was used to place 10 μl of a negative control solution (i.e., neat solvent(s)) onto another well-separated region. Three such agar plates were prepared for each concentration of antimicrobial solution. After spot placement, the agar plates were allowed to stand undisturbed for 10 to 30 minutes in a laminar flow hood before incubation at 37° C. for at least 24 hours.
The zone of inhibition resulting from each spot of antimicrobial solution was measured using a dial caliper (available from Brown and Sharpe of North Kingstown, R.I.; accuracy to 0.02 mm). Each zone of inhibition was measured twice, once on each of two perpendicular axes. The values reported in Tables 2 (TSA plates) and 3 (MOX plates) are the average of 18 measurements.

Structure (SMILES): O=C(O)c1ccccc1 [Benzoic acid]
- Group averages of Inhibition Zones, Film on Lawn Assay Example 1 (L. monocytogenes 15313 [1]; MOX Agar Plates, Example 1 film soaked at 37 C. in 0.75 wt % solution, Ethanol/Water (36/63.25)): 0 (no inhibition) mm
- Group averages of Inhibition Zones, Film on Lawn Assay Example 1 (L. monocytogenes 15313 [1]; MOX Agar Plates, Example 1 film soaked at 37 C. in 1.5 wt % solution, Ethanol/Water (36/62.5)): 24.0 ± 3.34 mm
- Group averages of Inhibition Zones, Film on Lawn Assay Example 1 (L. monocytogenes 15313 [1]; MOX Agar Plates, Example 1 film soaked at 37 C. in 3.0 wt % solution, Ethanol/Water (36/61)): 39.52 ± 2.93 mm
- Group averages of Inhibition Zones, Film on Lawn Assay Example 2 (L. monocytogenes 15313 [1]; MOX Agar Plates, Example 2 film soaked at 37 C. in 0.75 wt % solution, Ethanol/Water (36/63.25)): 0 (no inhibition) mm
- Group averages of Inhibition Zones, Film on Lawn Assay Example 2 (L. monocytogenes 15313 [1]; MOX Agar Plates, Example 2 film soaked at 37 C. in 1.5 wt % solution, Ethanol/Water (36/62.5)): 21.38 ± 3.90 mm
- Group averages of Inhibition Zones, Film on Lawn Assay Example 2 (L. monocytogenes 15313 [1]; MOX Agar Plates, Example 2 film soaked at 37 C. in 3.0 wt % solution, Ethanol/Water (36/61)): 32.29 ± 7.53 mm
- Group averages of Inhibition Zones, Film on Lawn Assay Example 1 (L. monocytogenes 15313 [1]; TSA Agar, Example 1 film soaked at 37 C. in 0.75 wt % solution, Ethanol/Water (36/63.25)): 0 (no inhibition) mm
- Group averages of Inhibition Zones, Film on Lawn Assay Example 1 (L. monocytogenes 15313 [1]; TSA Agar, Example 1 film soaked at 37 C. in 1.5 wt % solution, Ethanol/Water (36/62.5)): 17.68 ± 1.64 mm
- Group averages of Inhibition Zones, Film on Lawn Assay Example 1 (L. monocytogenes 15313 [1]; TSA Agar, Example 1 film soaked at 37 C. in 3.0 wt % solution, Ethanol/Water (36/61)): 20.17 ± 1.19 mm
- Group averages of Inhibition Zones, Film on Lawn Assay Example 2 (L. monocytogenes 15313 [1]; TSA Agar, Example 2 film soaked at 37 C. in 0.75 wt % solution, Ethanol/Water (36/63.25)): 0 (no inhibition) mm
- Group averages of Inhibition Zones, Film on Lawn Assay Example 2 (L. monocytogenes 15313 [1]; TSA Agar, Example 2 film soaked at 37 C. in 1.5 wt % solution, Ethanol/Water (36/62.5)): 18.60 ± 0.61 mm
- Group averages of Inhibition Zones, Film on Lawn Assay Example 2 (L. monocytogenes 15313 [1]; TSA Agar, Example 2 film soaked at 37 C. in 3.0 wt % solution, Ethanol/Water (36/61)): 18.90 ± 1.82 mm
- Group averages of Inhibition Zones, Spot on Lawn Assay (L. monocytogenes 15313 [2]; MOX Agar Plates, 0.75 wt % in Ethanol/Water (36/63.25)): 7.91 mm
- Group averages of Inhibition Zones, Spot on Lawn Assay (L. monocytogenes 15313 [2]; MOX Agar Plates, 1.5 wt % in Ethanol/Water (36/62.5)): 8.66 mm
- Group averages of Inhibition Zones, Spot on Lawn Assay (L. monocytogenes 15313 [2]; MOX Agar Plates, 3.0 wt % in Ethanol/Water (36/61)): 8.75 mm
- Group averages of Inhibition Zones, Spot on Lawn Assay (L. monocytogenes 15313 [2]; TSA Agar, 0.75 wt % in Ethanol/Water (36/63.25)): 8.13 ± 0.27 mm
- Group averages of Inhibition Zones, Spot on Lawn Assay (L. monocytogenes 15313 [2]; TSA Agar, 1.5 wt % in Ethanol/Water (36/62.5)): 8.32 ± 0.69 mm
- Group averages of Inhibition Zones, Spot on Lawn Assay (L. monocytogenes 15313 [2]; TSA Agar, 3.0 wt % in Ethanol/Water (36/61)): 8.32 ± 0.53 mm
